Values belong to the compound of their own block, whether it stands above or below them.
Assays:
[1] = Hypoxia response of the referenced genes/sequences, summary in cross-reference Table 26; assay type: cell-based, human; conditions: direction of expression change of the gene/sequence in response to hypoxia
HIF = assay: HRE-Luc luciferase reporter assay of HIF activity in transiently transfected 293T cells (evaluation of HIF prolyl hydroxylase inhibitors and EGLN3 isoforms); assay type: cell-based, human; conditions: normoxia, even when full length EGLN3 protein or EGLN3 splice variant was over-expressed; MIMO 0.4 mM
Procedure: As discussed above, the stability of HIF is controlled by proline hydroxylation, catalysed by the product of the EGLN3 gene which renders the HIF protein unstable. EGLN3 is only active in normoxia since the reaction that it catalyses requires oxygen.
Plasmid CMV-SVFL1 expresses full length EGLN3. Plasmid CMV-SVFL2 expresses the EGLN3 splice variant.
Three plasmid transfections were performed and pCIneo was used as the “stuffing”/control plasmid to fill the vacancies.
Transfected 293 cells were incubated under normoxia till the end of the experiment.

[2] = system: primary human macrophages; assay: Custom gene array, macrophages exposed to hypoxia and/or IL-15; assay type: cell-based; conditions: relative to no cytokine, 20% oxygen = 1
Procedure: Gene expression levels were measured and compared using the custom gene array. In data analysis per-gene normalisation was set up such that expression values represent the fold-change compared with the expression in untreated normoxic cells. Genes which are increased in expression in response to TNFα by at least 2-fold, in either normoxic or hypoxic cells, are shown in Table 20. Genes which are decreased in expression in response to TNFα by at least 2-fold, in either normoxic or hypoxic cells, are shown in Table 21.
The cytokine IL-15 is implicated in several disease in which macrophages and hypoxia both feature as elements of the inflammatory state, such as in atherosclerosis (Wuttge D M et al Am J Pathol. 2001 159:417-23) and rheumatoid arthritis (McInnes I B et al Immunol Today. 1998 19:75-9). Although the main target of IL-15 is T-cells effects have also been shown on monocytes (Badolato R et al Blood. 1997 90:2804-9). Therefore genes which respond to both hypoxia and IL-15 are especially likely to be relevant to disease processes and have utility in the design of therapeutic products. Genes which are increased in expression in response to IL-15 by at least 2-fold, in either normoxic or hypoxic cells, are shown in Table 24. Genes which are decreased in expression in response to IL-15 by at least 2-fold, in either normoxic or hypoxic cells, are shown in Table 25.

Compound: Alpha-2-macroglobulin
Hypoxia response [1]: Repression

Compound: CCOC(=O)c1ccc(O)c(O)c1 [EDB]
HIF-PH inhibition (HIF): work as HIF-PH inhibitors

Aldolase C expression (clone p1A19, Seq ID 260) ([2]; 0.1% oxygen): 1.30
Fatty-acid-Coenzyme A ligase, long-chain 2 expression (clone p1J11, Seq ID 466) ([2]; 0.1% oxygen): 1.29
Glucose phosphate isomerase expression (clone p1C6, Seq ID 368) ([2]; 0.1% oxygen): 3.13
Lactate dehydrogenase A expression (clone p1A8, Seq ID 224) ([2]; 0.1% oxygen): 2.29
Lactate dehydrogenase A expression (clone p1A9, Seq ID 224) ([2]; 0.1% oxygen): 1.83
Neutral sphingomyelinase (N-SMase) activation associated factor expression (clone p1J22, Seq ID 428) ([2]; 0.1% oxygen): 0.11
Proline 4-hydroxylase, alpha polypeptide II expression (clone p1B4, Seq ID 350) ([2]; 0.1% oxygen): 1.34
Triosephosphate isomerase 1 expression (clone p1A20, Seq ID 262) ([2]; 0.1% oxygen): 1.22
Uridine 5′ monophosphate hydrolase 1 expression (clone p1I7, Seq ID 50) ([2]; 0.1% oxygen): 3.61
Aldolase C expression (clone p1A19, Seq ID 260) ([2]; 20% oxygen): 0.35
Fatty-acid-Coenzyme A ligase, long-chain 2 expression (clone p1J11, Seq ID 466) ([2]; 20% oxygen): 1.64
Glucose phosphate isomerase expression (clone p1C6, Seq ID 368) ([2]; 20% oxygen): 0.57
Lactate dehydrogenase A expression (clone p1A8, Seq ID 224) ([2]; 20% oxygen): 0.48
Lactate dehydrogenase A expression (clone p1A9, Seq ID 224) ([2]; 20% oxygen): 0.49
Neutral sphingomyelinase (N-SMase) activation associated factor expression (clone p1J22, Seq ID 428) ([2]; 20% oxygen): 1.51
Proline 4-hydroxylase, alpha polypeptide II expression (clone p1B4, Seq ID 350) ([2]; 20% oxygen): 0.50
Triosephosphate isomerase 1 expression (clone p1A20, Seq ID 262) ([2]; 20% oxygen): 0.36
Uridine 5′ monophosphate hydrolase 1 expression (clone p1I7, Seq ID 50) ([2]; 20% oxygen): 4.98
Compound: IL-15
ABL expression (clone p1H8, Seq ID 182) ([2]; 0.1% oxygen): 0.09
Abstrakt expression (clone p1C14, Seq ID 384) ([2]; 0.1% oxygen): 1.24
Adipophilin expression (clone p1B6, Seq ID 314) ([2]; 0.1% oxygen): 2.39
Adipophilin expression (clone p1B7, Seq ID 314) ([2]; 0.1% oxygen): 2.02
Adipophilin expression (clone p1B8, Seq ID 314) ([2]; 0.1% oxygen): 1.42
Adipophilin expression (clone p1B9, Seq ID 314) ([2]; 0.1% oxygen): 1.66
D123 expression (clone p1C7, Seq ID 370) ([2]; 0.1% oxygen): 0.90
EST expression (clone p1D19, Seq ID 144) ([2]; 0.1% oxygen): 1.39
EST expression (clone p1H6, Seq ID 192) ([2]; 0.1% oxygen): 0.67
EST expression (clone p2A14, Seq ID 446) ([2]; 0.1% oxygen): 0.51
GAPDH expression (clone p1A11, Seq ID 254) ([2]; 0.1% oxygen): 4.32
Glycogen synthase 1 expression (clone p1G24, Seq ID 276) ([2]; 0.1% oxygen): 0.55
Hypoxia-inducible protein 2 expression (clone p1D8, Seq ID 272) ([2]; 0.1% oxygen): 0.62
Keratin 6B expression (clone p1K14, Seq ID 422) ([2]; 0.1% oxygen): 0.11
Metallothionein 2A expression (clone p1A23, Seq ID 266) ([2]; 0.1% oxygen): 3.08
SCYA2 expression (clone p1P5, Seq ID 396) ([2]; 0.1% oxygen): 1.37
SCYA7 expression (clone p1J5, Seq ID 464) ([2]; 0.1% oxygen): 1.61
SCYA8 expression (clone p1I21, Seq ID 480) ([2]; 0.1% oxygen): 1.55
cDNA: FLJ23019 fis, clone LNG00916 expression (clone p1J16, Seq ID 454) ([2]; 0.1% oxygen): 7.27
hypothetical protein FLJ10206 expression (clone p1J6, Seq ID 40) ([2]; 0.1% oxygen): 0.18
hypothetical protein FLJ22690 expression (clone p1H5, Seq ID 206) ([2]; 0.1% oxygen): 1.59
hypothetical protein MGC4549 expression (clone p1I12, Seq ID 152) ([2]; 0.1% oxygen): 0.28
ABL expression (clone p1H8, Seq ID 182) ([2]; 20% oxygen): 1.22
Abstrakt expression (clone p1C14, Seq ID 384) ([2]; 20% oxygen): 0.40
Adipophilin expression (clone p1B6, Seq ID 314) ([2]; 20% oxygen): 0.37
Adipophilin expression (clone p1B7, Seq ID 314) ([2]; 20% oxygen): 0.30
Adipophilin expression (clone p1B8, Seq ID 314) ([2]; 20% oxygen): 0.23
Adipophilin expression (clone p1B9, Seq ID 314) ([2]; 20% oxygen): 0.41
D123 expression (clone p1C7, Seq ID 370) ([2]; 20% oxygen): 0.47
EST expression (clone p1D19, Seq ID 144) ([2]; 20% oxygen): 2.27
EST expression (clone p1H6, Seq ID 192) ([2]; 20% oxygen): 1.95
EST expression (clone p2A14, Seq ID 446) ([2]; 20% oxygen): 1.08
GAPDH expression (clone p1A11, Seq ID 254) ([2]; 20% oxygen): 0.52
Glycogen synthase 1 expression (clone p1G24, Seq ID 276) ([2]; 20% oxygen): 0.88
Hypoxia-inducible protein 2 expression (clone p1D8, Seq ID 272) ([2]; 20% oxygen): 1.25
Keratin 6B expression (clone p1K14, Seq ID 422) ([2]; 20% oxygen): 1.48
Metallothionein 2A expression (clone p1A23, Seq ID 266) ([2]; 20% oxygen): 1.26
SCYA2 expression (clone p1P5, Seq ID 396) ([2]; 20% oxygen): 4.51
SCYA7 expression (clone p1J5, Seq ID 464) ([2]; 20% oxygen): 3.27
SCYA8 expression (clone p1I21, Seq ID 480) ([2]; 20% oxygen): 3.77
cDNA: FLJ23019 fis, clone LNG00916 expression (clone p1J16, Seq ID 454) ([2]; 20% oxygen): 5.76
hypothetical protein FLJ10206 expression (clone p1J6, Seq ID 40) ([2]; 20% oxygen): 1.28
hypothetical protein FLJ22690 expression (clone p1H5, Seq ID 206) ([2]; 20% oxygen): 2.37
hypothetical protein MGC4549 expression (clone p1I12, Seq ID 152) ([2]; 20% oxygen): 1.64

Compound: Interleukin 8
Hypoxia response [1]: Increase

Compound: Monocyte chemotactic protein 1
Hypoxia response [1]: Repression

— patent US20030203372A1, “Analysis method” (priority 2000, published 2003)
